The subject of the data set is human non-small cell lung cancer A549 cells. Nature of the data set: MTT cytotoxicity assay, A549 cells. The class given is cell-based. The protocol:
Human non-small cell lung cancer A549 and human stomach adenocarcinoma MKN-28 cells were purchased from the American Type Culture Collection (ATCC; Manassas, VA, USA). […] Docetaxel was used as a positive control with an IC50 value of 0.08 μM on A549 cells.

Read-outs that look alike come from different tables or passages of the source. Peptide text beside a SMILES is read from it.

In general, IC50 refers to the concentration that gives 50% inhibition.

Take `CC[C@H](C)[C@@H]1NC(=O)[C@@H]2CCCN2C(=O)[C@@H]2CCCN2C(=O)[C@H](CC(C)C)NC(=O)[C@H](Cc2ccccc2)NC(=O)CNC(=O)[C@H](CC(N)=O)NC1=O` [dianthiamide A, cyclo-(Gly^1-L-Phe^2-L-Leu^3-L-trans-Proa^4-L-cis-Prob^5-L-Ile^6-L-Asn^7)] (cyclo(GFLPPIN)): the IC50 (human, 48 h) is 47.9 µM.

`CC(=O)O[C@@]12CO[C@@H]1C[C@H](O)[C@@]1(C)C(=O)[C@H](O)C3=C(C)[C@@H](OC(=O)[C@H](O)[C@@H](NC(=O)OC(C)(C)C)c4ccccc4)C[C@@](O)([C@@H](OC(=O)c4ccccc4)[C@H]21)C3(C)C` [docetaxel]: under “Homo sapiens, A549, MTT assay, 5 × 10^3 cells/well, 48 h incubation, tested 5–200 µM, absorbance 540 nm, read-out: cytotoxic activity against A549 cell line, IC50”, the IC50 was 0.08 µM.
